In patent US11754547B2, “Biorecognition elements for detection of fungi and bacteria in fuel systems” (priority 2020, dated 2023):

Legend:
Experiment in all cases: Western blot of phage-displayed peptide BRE binding to biotinylated target peptide
[1] = system: CHI-P1 (SEQ. ID No. 25), Chitinase; design: species or system fungi; settings: phage clone with biotinylated target peptide, streptavidin bead pull-down; FIG. 4
Source text: (§1) Recombinant phage clones were selected using X-Gal/IPTG, which produced a blue color on phage infected E. coli colonies. After the amplification of multiple phage isolates carrying a single heptapeptide sequence (i.e., monoclonal phages), genomic DNA was isolated and sequenced to determine the aa sequences of the peptide BREs. Isolated monoclonal phages were sequenced after each round of selection. After four rounds of selection, the phage pool was enriched for target-binding phages with specific sequences. […] The binding of phages displaying specific peptide BREs to the target was assessed by Western blot analysis. Monoclonal target-specific bacteriophages were incubated with biotinylated target peptide epitope under conditions similar to those used in biopanning. The resulting phage-target complexes were recovered using streptavidin-coated magnetic beads, and the phage-target complexes were resolved via SDS-PAGE and detected by Western blot using antibodies against the M13 phage capsid and the biotin molecule attached to the specific target. Western blotting was performed by preparing a 200 μL solution with each of the phage clones at a concentration of 1×10^11 pfu/mL in 1×TBS, pH 7.5. Then, 10 μL of biotinylated target peptide of concentration 1 mg/mL was added to each phage solution and incubated at 25° C. for 1 hr. […]

[2] = system: Gor-Fasciclin (SEQ. ID No. 58), Gordonia-Fasciclin; settings: phage clone with biotinylated target peptide, streptavidin bead pull-down; FIG. 5
Sequence of Gor-Fasciclin (SEQ. ID No. 58), Gordonia-Fasciclin (as listed by the source): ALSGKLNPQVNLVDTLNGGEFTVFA
Source text: as §1, with “hr. Phage-biotin target complexes were captured and pull-down with 25 μL of streptavidin-coated beads, and the captured complexes washed five times with 1×TBST. The pelleted complexes were re-suspended in 20 μL of 2× Laemmli Buffer, heated to 95° C. for 5 min, and resolved in a 14% SDS-PAGE gel. Proteins were blotted to a nitrocellulose membrane and blocked with TBST containing 5% BSA. To detect phages, a 1:2000 dilution of rabbit anti-M13 phage antibody (primary antibody) followed by a 1:5000 dilution of alkaline phosphatase (AP)-conjugated goat anti-rabbit antibody was used. For detection of biotinylated target, a 1:2000 dilution of AP-conjugated goat anti-biotin antibody was used. For colorimetric visualization, BCIP/NBT reagent was used.” for “hr.”

[3] = system: ALK-P3 (SEQ. ID No. 1), P450 Alkane Hydroxylase; design: species or system fungi; settings: phage clone with biotinylated target peptide, streptavidin bead pull-down; FIG. 4
Sequence of ALK-P3 (SEQ. ID No. 1), P450 Alkane Hydroxylase (as listed by the source): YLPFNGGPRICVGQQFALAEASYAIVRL
Source text: as §1

Row | Substance | binding to Gor-Fasciclin (SEQ. ID No. 58) target, Western blot [2] | further results
1 | MPPHGDR (Artificial Sequence Obtained Through Biopanning) [SEQ. ID No. 26] |  | binding to CHI-P1 (SEQ. ID No. 25) target, Western blot [1]: specific binding
2 | RSLGYTG (Artificial Sequence Obtained Through Biopanning) [SEQ. ID No. 60] | specific binding | 
3 | TWTLARP (Artificial Sequence Obtained Through Biopanning) [SEQ. ID No. 59] | specific binding | 
4 | WSLGYTG (Artificial Sequence Obtained Through Biopanning) [SEQ. ID No. 2] |  | binding to ALK-P3 (SEQ. ID No. 1) target, Western blot [3]: specific binding
5 | YVPEWVS (Artificial Sequence Obtained Through Biopanning) [SEQ. ID No. 61] | specific binding | 
